Patent US20240384226A1, “RHODOPSEUDOMONAS PALUSTRIS TIE-1 STRAINS AND METHODS FOR BIOPLASTIC PRODUCTION” (Washington University, priority 2023, published 2024)
Values after ≈ are worked out from the molar mass of the structure shown.

System: TIE-1
Experiment: minimum inhibitory concentration (MIC) of antibiotics for TIE-1
Assay type: cell-based, Rhodopseudomonas palustris TIE-1
Settings: resistance of TIE-1 to selection antibiotics; for MIC: Rhodopseudomonas palustris

| Compound | minimum inhibitory concentration (MIC) [µg/mL] | MIC [µg/mL] |
| --- | --- | --- |
| gentamicin | 200 |  |
| O=C(N[C@H](CO)[C@H](O)c1ccc([N+](=O)[O-])cc1)C(Cl)Cl [chloramphenicol] |  | 100 (≈ 309 µM) |
| NC[C@H]1O[C@H](O[C@H]2[C@H](O)[C@@H](O[C@H]3O[C@H](CO)[C@@H](O)[C@H](N)[C@H]3O)[C@H](N)C[C@@H]2N)[C@H](O)[C@@H](O)[C@@H]1O [kanamycin] |  | 50 (≈ 103 µM) |
